Experiments:
[1] = test system: HO-1^+ pancreatic macrophages; assay: Staining of pancreatic macrophages (HO-1, F4/80) after hemin; type: in vivo, mice; conditions: intraperitoneal hemin
Method: FIG. 3: Hemin increases HO-1^+ pancreatic macrophages in association with MCP-1 and MIP-1α induction. (A) Pancreas from CDD-fed mice was triple-stained using antibodies to HO-1 (a), the macrophage marker F4/80 (b), and the granulocyte marker Gr-1 (c). Scale bar in panel d=20 μM. (B) Mice were treated intraperitoneally with hemin (H) or vehicle (V) once (H×1) or 3×(H×3, V×3) during a one week period, followed by feeding with CDD or regular chow for 3 d. Pancreata were collected followed by staining and counting F4/80^+ macrophages in 10 randomly selected high power fields (HPF). The mean±SD (3 mice/group) and p-value for the indicated comparisons are shown. […]
Animal procedures. […] Immunofluorescence staining was performed as described (29) and images were analyzed using confocal microscopy. Total tissue lysates were prepared by homogenization in Laemmli sample buffer and analyzed by SDS-PAGE followed by transfer to membranes for blotting and protein visualization by enhanced chemiluminescence. Trypsin activity was determined using a fluorimetric assay and the substrate Boc-Gln-Ala-Arg-MCA (Peptides International Inc.; Louisville, Ky.), and comparison to a standard curve generated with purified trypsin as described. […] Lung injury after caerulein administration was assessed as previously described, based on neutrophilic infiltration, pulmonary edema, alveolar distension and collapse. […]

[2] = test system: peritoneal cells; assay: Effect of hemin on peritoneal cell number (cell counting, flow cytometry); type: in vivo; conditions: mice injected during a 7-day period, 3 per group, p 0.06 vs vehicle
Method: The effect of hemin or vehicle on peritoneal cell number was assayed. Mice (3 per group) were injected with vehicle or hemin during a 7-day period. Peritoneal cells were then isolated followed by counting. Cell viability was greater than 98% using trypan blue exclusion. The number of cells that were double positive for Mac-1^+ and F4/80^+ was then determined using flow cytometry. P-values compared the hemin treated versus the vehicle treated groups.

[3] = test system: macrophages; assay: In vivo macrophage homing to the pancreas, bioluminescence imaging; set-up: species or system FVB/n mice; conditions: single dose of hemin 24 h prior to cell transfer
Method: FIG. 4: Effect of hemin on in vivo macrophage homing to the pancreas using bioluminescence imaging. (A) Experimental scheme of cell transfer. Hemin (H) was injected 3× intraperitoneally into luciferase-overexpressing (+/+) mice, then peritoneal cells were harvested and macrophages were selected using anti-Mac-1 magnetic beads. Luciferase/Mac-1 double-positive cells were transferred intraperitoneally to wild-type (luciferase −/−) mice that were preinjected with one dose of H or vehicle (V) 24 h prior to the transfer. This hemin injection is necessary to induce pancreatic chemokines (FIG. 3C). (B) Live images of recipient intact anesthetized mice were taken 5 min (a) or 24 h (b) after cell transfer. Livers and pancreata were removed 24 h after the transfer followed by imaging (c). The signal intensity scale bar is shown below each image. (C) A duplicate of the pancreata shown in image c of panel B (from recipients receiving donor cells from H-injected animals) was double-stained with antibodies to luciferase and F4/80. […] Bar in panel c=50 μm.
The present invention offers a novel approach of immune-mediated therapy via the unanticipated effect of hemin on leukocyte recruitment to the pancreas. Based on a mouse animal model of pancreatitis, the therapeutic approach of the present invention has applicability to other mammalian, particularly human, pancreatitis. […]

Hemin
HO-1^+ pancreatic macrophages [1]: increases
Total cell number [2]: 7.3 ± 2.1 × 10^6
macrophage recruitment to the pancreas after hemin priming of recipients [3]: stimulates pancreatic chemokine production and triggers migration of macrophages to the pancreas

— patent US7745402B2, “Method of treating pancreatitis” (Lundbeck Inc., priority 2005, dated 2010)
